Test results: patent publication US10323018B2 (Millennium Pharmaceuticals, Inc., priority 2015, dated 2019)

Legend:
hNAMPT protein = hNAMPT protein (Homo sapiens (Human), UniProt P43490); test: NAMPT enzyme assay (TR-FRET/HTRF with BodiPY ligand); type: binding; settings: for inhibition at 1 µM: NAMPT inhibition at compound concentration 1 μM, read-out: Percent Inhibition; for IC50: NAMPT inhibition, IC50 range class
Outline: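 His-tagged hNAMPT with anti-6His-Tb, incubated with compound and BodiPY ligand for 1 h at rt in the dark, in Tris-HCl pH 7.5 buffer with DTT, NaCl, MgCl2 and Tween 20. TR-FRET measured with 320 nm excitation as the 520/486 nm emission ratio. IC50 fitted relative to DMSO controls.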

PC3 cells = test: PC3 growth inhibition (Cell-titer glo, 72 hours); type: cell-based; settings: Homo sapiens, PC-3, 72 h, read-out: Percent Viability, PC3 cells, compound concentration 1.667 μM, 72 hours
Outline: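 PC3 cells grown in RPMI1640 plated at 8×10^4 cells/ml, incubated overnight, then exposed to compound diluted in AIM serum-free medium for 72 h at 37 °C, 5% CO2. Luminescence by CellTiter-Glo relative to DMSO controls; % viability at single concentration, GI50 or LD50 from concentration-response curves.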

Sequence of hNAMPT protein (P43490 whole entry): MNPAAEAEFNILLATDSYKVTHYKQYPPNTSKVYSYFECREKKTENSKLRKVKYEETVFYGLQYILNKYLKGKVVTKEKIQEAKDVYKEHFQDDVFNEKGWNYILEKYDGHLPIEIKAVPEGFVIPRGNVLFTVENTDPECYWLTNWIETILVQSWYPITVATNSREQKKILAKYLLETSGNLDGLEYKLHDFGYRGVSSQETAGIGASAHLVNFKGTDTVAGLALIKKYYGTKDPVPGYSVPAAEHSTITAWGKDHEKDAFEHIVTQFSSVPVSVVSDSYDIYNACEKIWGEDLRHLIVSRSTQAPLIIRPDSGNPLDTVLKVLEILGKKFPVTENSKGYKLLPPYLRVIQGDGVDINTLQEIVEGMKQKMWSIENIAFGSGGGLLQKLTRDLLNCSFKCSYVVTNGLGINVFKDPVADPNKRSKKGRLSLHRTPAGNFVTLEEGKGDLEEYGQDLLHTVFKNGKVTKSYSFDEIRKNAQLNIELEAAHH

Row | Compound | inhibition at 1 µM (hNAMPT protein) [%] | IC50 (hNAMPT protein) [nM] | viability at 1.667 µM (PC3 cells) [%]
1 | CCNc1nc(-c2ccc(F)cc2)nc2cc(C(=O)NCCCc3ncc[nH]3)ccc12 [Compound I-41, 4-(ethylamino)-2-(4-fluorophenyl)-N-[3-(1H-imidazol-2-yl)propyl]quinazoline-7-carboxamide] | 92 | > 100 | 2
2 | CCOc1cc(-c2ccc(F)cc2)nc2cc(C(=O)NCCn3cncn3)ccc12 [Compound I-55, 4-ethoxy-2-(4-fluorophenyl)-N-[2-(1H-1,2,4-triazol-1-yl)ethyl]quinoline-7-carboxamide] | 93 | 50 to 100 | 86
3 | COCCOc1cc(-c2ccc(F)cc2)nc2cc(C(=O)NCCc3c[nH]nc3C)ccc12 [Compound I-126, 2-(4-fluorophenyl)-4-(2-methoxyethoxy)-N-[2-(3-methyl-1H-pyrazol-4-yl)ethyl]quinoline-7-carboxamide] | 91 | 50 to 100 | 2
4 | CCOc1nc(-c2ccc(F)cc2)nc2cc(C(=O)NCCCc3ccnnc3)ccc12 [Compound I-29, 4-ethoxy-2-(4-fluorophenyl)-N-[3-(pyridazin-4-yl)propyl]quinazoline-7-carboxamide] | 100 | < 10 | 1
5 | CCOc1cc(-c2ccc(Cl)s2)nc2cc(C(=O)NCCc3nnc[nH]3)ccc12 [Compound I-177, 2-(5-chloro-2-thienyl)-4-ethoxy-N-[2-(4H-1,2,4-triazol-3-yl)ethyl]quinoline-7-carboxamide] | 97 | 10 to 50 | 3
6 | CCOc1cc(-c2ccc(C)nc2OC)nc2cc(C(=O)NCCCc3ccn[nH]3)ccc12 [Compound I-104, 4-ethoxy-2-(2-methoxy-6-methylpyridin-3-yl)-N-[3-(1H-pyrazol-5-yl)propyl]quinoline-7-carboxamide] | 95 | 10 to 50 | 2
7 | CCOc1cc(-c2ccc(F)cc2)nc2cc(C(=O)NCCc3ccc(C#N)cc3)ccc12 [Compound I-47, N-[2-(4-cyanophenyl)ethyl]-4-ethoxy-2-(4-fluorophenyl)quinoline-7-carboxamide] | 47 | < 10 | 99
8 | CCOc1cc(-c2ccc(F)cc2)nc2cc(C(=O)NCCc3n[nH]nc3C)ccc12 [Compound I-203, 4-ethoxy-2-(4-fluorophenyl)-N-[2-(5-methyl-2H-1,2,3-triazol-4-yl)ethyl]quinoline-7-carboxamide] | 98 | < 10 | 2
9 | CCOc1cc(-c2ccc(OC)nc2)nc2cc(C(=O)NCCc3[nH]nnc3C)ccc12 [Compound I-88, 4-ethoxy-2-(6-methoxypyridin-3-yl)-N-[2-(4-methyl-1H-1,2,3-triazol-5-yl)ethyl]quinoline-7-carboxamide] | 97 | 10 to 50 | 1
10 | CCOc1cc(-c2ccc(C)nc2)nc2cc(C(=O)NCCc3[nH]nnc3C)ccc12 [Compound I-77, 4-ethoxy-2-(6-methylpyridin-3-yl)-N-[2-(4-methyl-1H-1,2,3-triazol-5-yl)ethyl]quinoline-7-carboxamide] | 97 | 10 to 50 | 1
11 | CCOc1cc(-c2ccc(C)nc2)nc2cc(C(=O)NCCCc3cc[nH]n3)ccc12 [Compound I-111, 4-ethoxy-2-(6-methylpyridin-3-yl)-N-[3-(1H-pyrazol-3-yl)propyl]quinoline-7-carboxamide] | 97 | 10 to 50 | 2
12 | CCOc1cc(-c2ccnc(C)c2)nc2cc(C(=O)NCc3ccc4ncnn4c3)ccc12 [Compound I-74, 4-ethoxy-2-(2-methylpyridin-4-yl)-N-([1,2,4]triazolo[1,5-a]pyridin-6-ylmethyl)quinoline-7-carboxamide] | 100 | < 10 | 1
13 | CCOc1cc(-c2ccnc(OC)c2)nc2cc(C(=O)NCCc3[nH]nnc3C)ccc12 [Compound I-83, 4-ethoxy-2-(2-methoxypyridin-4-yl)-N-[2-(4-methyl-1H-1,2,3-triazol-5-yl)ethyl]quinoline-7-carboxamide] | 96 | 10 to 50 | 2
14 | CCOc1cc(-c2cccnc2C)nc2cc(C(=O)NCCCc3nnc[nH]3)ccc12 [Compound I-213, 4-ethoxy-2-(2-methylpyridin-3-yl)-N-[3-(4H-1,2,4-triazol-3-yl)propyl]quinoline-7-carboxamide] | 87 | > 100 | 1
15 | CCOc1cc(-c2ccnc(C)c2)nc2cc(C(=O)NCCCc3ccn[nH]3)ccc12 [Compound I-149, 4-ethoxy-2-(2-methylpyridin-4-yl)-N-[3-(1H-pyrazol-5-yl)propyl]quinoline-7-carboxamide] | 96 | 10 to 50 | 2
16 | CCOc1cc(-c2ccc(F)cc2)nc2cc(C(=O)NCc3ccn4ncnc4c3)ccc12 [Compound I-130, 4-ethoxy-2-(4-fluorophenyl)-N-([1,2,4]triazolo[1,5-a]pyridin-7-ylmethyl)quinoline-7-carboxamide] | 100 | < 10 | 2
17 | CCOc1cc(-c2cc(OC)ncc2F)nc2cc(C(=O)NCCCc3ncc[nH]3)ccc12 [Compound I-12, 4-ethoxy-2-(5-fluoro-2-methoxypyridin-4-yl)-N-[3-(1H-imidazol-2-yl)propyl]quinoline-7-carboxamide] | > 99 | < 10 | 1
18 | CCOc1cc(SCC)nc2cc(C(=O)NCCCc3ncc[nH]3)ccc12 [Compound I-49, N-(3-(1H-Imidazol-2-yl)propyl)-4-ethoxy-2-(ethylthio)quinoline-7-carboxamide] | 98 | < 10 | 5
19 | CC(C)Oc1nc(-c2ccc(F)cc2)nc2cc(C(=O)NCCCc3ncc[nH]3)ccc12 [Compound I-36, 2-(4-fluorophenyl)-N-[3-(1H-imidazol-2-yl)propyl]-4-isopropoxyquinazoline-7-carboxamide] | > 99 | < 10 | 2
20 | CCOc1cc(-c2cnc(OC)c(F)c2)nc2cc(C(=O)NCCCc3nnc[nH]3)ccc12 [Compound I-89, 4-ethoxy-2-(5-fluoro-6-methoxypyridin-3-yl)-N-[3-(4H-1,2,4-triazol-3-yl)propyl]quinoline-7-carboxamide] | 96 | 10 to 50 | 2
21 | CCCc1cc(OCC)c2ccc(C(=O)NCCCc3ncc[nH]3)cc2n1 [Compound I-226, N-(3-(1H-imidazol-2-yl)propyl)-4-ethoxy-2-propylquinoline-7-carboxamide] | 86 | > 100 | 14
22 | CCOc1c(F)c(-c2ccnc(OC)c2)nc2cc(C(=O)NCCCc3[nH]nnc3C)ccc12 [Compound I-65, 4-ethoxy-3-fluoro-2-(2-methoxypyridin-4-yl)-N-[3-(4-methyl-1H-1,2,3-triazol-5-yl)propyl]quinoline-7-carboxamide] | 91 | 50 to 100 | 1
23 | COCCOc1cc(-c2ccnc(C)c2)nc2cc(C(=O)NCc3ccn4ncnc4c3)ccc12 [Compound I-69, 4-(2-methoxyethoxy)-2-(2-methylpyridin-4-yl)-N-([1,2,4]triazolo[1,5-a]pyridin-7-ylmethyl)quinoline-7-carboxamide] | 86 | > 100 | 4
24 | CCOc1cc(-c2cnccc2OC)nc2cc(C(=O)NCCCc3nnc[nH]3)ccc12 [Compound I-212, 4-ethoxy-2-(4-methoxypyridin-3-yl)-N-[3-(4H-1,2,4-triazol-3-yl)propyl]quinoline-7-carboxamide] | 69 | > 100 | 2
25 | CCOc1cc(-c2ccnc(OC)c2Cl)nc2cc(C(=O)NCCCc3nnc[nH]3)ccc12 [Compound I-166, 2-(3-chloro-2-methoxypyridin-4-yl)-4-ethoxy-N-[3-(4H-1,2,4-triazol-3-yl)propyl]quinoline-7-carboxamide] | 94 | 10 to 50 | 2
26 | CCOc1cc(C2CCOCC2)nc2cc(C(=O)NCCCc3nnc[nH]3)ccc12 [Compound I-135, 4-ethoxy-2-(tetrahydro-2H-pyran-4-yl)-N-[3-(4H-1,2,4-triazol-3-yl)propyl]quinoline-7-carboxamide] | 71 | > 100 | 4
27 | CCOc1nc(-c2ccc(Cl)cc2)nc2cc(C(=O)NCCCc3ncc[nH]3)ccc12 [Compound I-38, 2-(4-chlorophenyl)-4-ethoxy-N-[3-(1H-imidazol-2-yl)propyl]quinazoline-7-carboxamide] | > 99 | < 10 | 2
28 | CCOc1cc(-c2ccc(C)nc2)nc2cc(C(=O)NCc3nc4cnccc4[nH]3)ccc12 [Compound I-167, 4-ethoxy-N-(1H-imidazo[4,5-c]pyridin-2-ylmethyl)-2-(6-methylpyridin-3-yl)quinoline-7-carboxamide] | > 99 | < 10 | 2
